Earlier results as cited in patent US20210069110A1, “NON-AQUEOUS COMPOSITION HAVING DRUG CARRIED THEREIN, AND METHOD FOR PRODUCING SAME” (Techno Guard Co. Ltd., priority 2017, published 2021).

Details: General Notice of Japanese Pharmacopoeia

Structure (SMILES)	Water solubility of drug (Expression in Japanese Pharmacopoeia)
CC(=O)O[C@@]12CO[C@@H]1C[C@H](O)[C@@]1(C)C(=O)[C@H](O)C3=C(C)[C@@H](OC(=O)[C@H](O)[C@@H](NC(=O)OC(C)(C)C)c4ccccc4)C[C@@](O)([C@@H](OC(=O)c4ccccc4)[C@H]21)C3(C)C [Docetaxel]	Practically insoluble
CO[C@H]1C(=O)[C@]2(C)[C@@H](OC)C[C@H]3OC[C@@]3(OC(C)=O)[C@H]2[C@H](OC(=O)c2ccccc2)[C@]2(O)C[C@H](OC(=O)[C@H](O)[C@@H](NC(=O)OC(C)(C)C)c3ccccc3)C(C)=C1C2(C)C [Cabazitaxel]	Practically insoluble
CCCCC[C@H](O)/C=C/[C@H]1[C@H](O)CC(=O)[C@@H]1CCCCCCC(=O)O [Prostaglandin E1]	Practically insoluble
CC(=O)O[C@H]1C(=O)[C@@]2(C)[C@H]([C@H](OC(=O)c3ccccc3)[C@]3(O)C[C@H](OC(=O)[C@H](O)[C@@H](NC(=O)c4ccccc4)c4ccccc4)C(C)=C1C3(C)C)[C@]1(OC(C)=O)CO[C@@H]1C[C@@H]2O [Paclitaxel]	Practically insoluble
